{"source": "patent US20260165982A1", "about": "“COMPOSITIONS AND METHODS FOR DELIVERY OF NUCLEIC ACID THERAPEUTICS” (Entrada Therapeutics, Inc., priority 2022, published 2026)", "test_system": "HeLa cells", "assay": "LNP cellular uptake / eGFP mRNA expression by FACS flow cytometry", "type": "cell-based, Human", "conditions": "eGFP mRNA cargo", "protocol": "LNP cellular uptake for the LNP formulations in Table 10 was tested. HeLa cells (Human epithelial cells, ATCC) were seeded at 0.05×10^6 cells per well in 1000 μL DMEM media (Dulbecco's Modified Eagle Medium, GIBCO) containing 10% FBS (GIBCO) and 5% penicillin streptomycin (GIBCO) in 24-well plate. The LNP formulations of Table 10 containing the eGFP mRNA were prepared with a total treatment dose of 250 ng and 1000 ng eGFP mRNA per well in triplicates. The cells were incubated for 24 h at 37° C. Cells were then trypsinized and resuspended in PBS and centrifuged at 200 g for 5 min. The supernatant was removed, and the pelleted cells were redispersed in 500 μL of PBS+2% FBS per well and transferred to FACS tubes and read on a flow cytometry analyzer (BD FACSCanto™ II). The data presented are the mean fluorescent intensity of the signals from each cell treatment analyzed. For transfection efficiency, treated cells were gated for EGFP expression, and the data presented are the percentage of cells analyzed with higher EGFP expression than untreated cells. […] HeLa cells were treated with the various formulations for 24 hours before using fluorescence activated cell sorting (FACS) flow cytometry to quantify eGFP expression in the treated cells. The higher the mean fluorescence intensity, the greater the expression of eGFP, ant therefore, the greater the transfection efficiency."}
{"smiles": "CCCCCCCCCCCOC(=O)CCCCCN(CCO)CCCCCCCC(=O)OC(CCCCCCCC)CCCCCCCC", "note": "[SM-102]", "values": [{"measurement": "efficacy (transfection), findings from all the experiments of Example 2", "value": "more efficacious ionizable lipid than D-Lin-MC3-DMA"}]}
